Measured values from article PMC9820444, “Design and Synthesis of Acridine-Triazole and Acridine-Thiadiazole Derivatives and Their Inhibitory Effect against Cancer Cells” (International Journal of Molecular Sciences, 2022).
Like-named read-outs stand apart in the source and are kept apart here. Marks after values point to notes of the source that are not given here.

How the values were obtained:
[1] = test system: human gastric cancer cells-803 (MGC-803); test: MTT antiproliferative assay, MGC-803; format: cell-based; details: read-out: Effect against cell viability (IC50), MGC-803
Experimental: (§1) All newly synthesized acridinyl derivatives (4–6) were screened for their anticancer activities in comparison to the reference compounds, 5-FU and cis-platinum. Compounds 4–6 were tested for their in vitro antitumor activities against HFF, MGC-803, BEL-7404, NCI-H460, and T24 tumor cell lines, and human normal liver cells (LO2), and the results are shown in Table 1. Most of the compounds had strong selective potency against MGC-803 and T24 cancer cells. […] In the T24 cell line assay, many compounds, especially the series of compound 4, had significant activity against T24. This implies that there is a significant increase in potency after the introduction of the aroyl thiourea group. […] To our delight, most 1,2,4-triazolethiones (5) and 1,2,4-thiadiazoles (6) have low toxicity to LO2 compared with the positive control.
(§2) Test samples, including compounds 4–6 and commercial classical anticancer drugs (5-FU and cis-platinum), were screened for their anti-cancer activity against HFF human foreskin fibroblast cells, MGC-803 human gastric cancer cells, BEL-7404 human hepatocellular carcinoma cells, NCI-H460 human large cell carcinoma cells, and T24 human bladder carcinoma cells using the 3-(4,5-dimethylthiazol-2-yl)-2,5-diphenyltetrazoliumbromide (MTT) assay method cited in the literature. The initial concentration of all the test samples was 100 μg/mL, which was serially diluted in complete medium with ten-fold dilutions to give six concentrations per compound. Their cytotoxicity was determined in 96-well flat bottomed microtiter plates. All the test samples were tested in triplicate. The results were expressed as the drug concentration that inhibited cell growth by 50% as compared to the controls (IC50). The IC50 values were calculated from regression lines obtained from the percent cell growth inhibition plotted as a function of the logarithm of the dose.

[2] = test system: subintestinal veins (SIVs) in zebrafish embryos; test: Zebrafish angiogenesis assay (subintestinal veins, NBT/BCIP staining); format: in vivo; details: 1 mg/mL; for area of blood vessels: additional blood vessels were formed on the blood vessel edge
Source text: Currently, the zebrafish has emerged as a valuable model organism to substitute traditional models for studying angiogenesis inhibitors. The genes of zebrafish show 70–80% similarity to humans, and the vascular structure of zebrafish has high similarity to that of other vertebrates. Therefore, the subintestinal veins (SIVs) in the zebrafish embryos are used as evaluation indicators for anti-angiogenesis inhibitors. In this study, NBT/BCIP vascular staining was used to observe the angiogenesis effect of representative drugs (4h, 4f, 5d, 5h, 6g and 6h) in a zebrafish model. […] Compared with the blank control group, the area of the meshed pattern vessel and the number of vascular branches in the network decreased after the administration of compounds 4h, 5d, 5h and 6h.
The 24 hpf zebrafish embryos were dechorionated with a 1 gL^−1 pronase treatment and maintained in distilled water in 12-well cell culture plates (each well contained 20 embryos). A negative control group containing zebrafish embryos in distilled water and a vehicle treatment group that was treated with 2% dimethyl sulfoxide (DMSO) were prepared. The anti-angiogenic compounds were diluted to 1 mg/mL. After incubating at 28 °C for […], the embryos were immersed in 4% paraformaldehyde and dehydrated by gradient ethanol. Subsequently, the embryos were balanced in NTMT buffer (5 M NaCl + 1 M Tris [pH 9.0–9.5] + 1 M MgCl2+ 10% Tween), and nitrotetrazolium blue chloride (NBT) and p-toluidine salt (BCIP) staining were performed. To evaluate the effect of compounds on the angiogenesis of zebrafish embryos, the growth of embryonic sub-intestinal veins (SIVs) at 72 hpf was observed using an IX71 Olympus microscope (Hamburger, Germany). The length of the SIVs was calculated using the image J 1.8.0 software (Bethesda, MD, USA).

[3] = test system: bladder cancer cells (T24); test: MTT antiproliferative assay, T24; format: cell-based, human; details: read-out: Effect against cell viability (IC50), T24
Experimental: as §1, §2

[4] = test system: human foreskin fibroblasts (HFF); test: MTT antiproliferative assay, HFF; format: cell-based; details: read-out: Effect against cell viability (IC50), HFF
Experimental: as §1, §2

[5] = test system: human normal liver cells (LO2); test: Cytotoxicity against normal liver cells LO2; format: cell-based; details: MTT, read-out: Effect against cell viability (IC50), LO2
Experimental: as §1, §2

[6] = test system: zebrafish embryos; parameters: mortality rate of zebrafish embryos: dose or concentration left out as unconfirmed; details: for MAR (malformation rate) / MOR (mortality rate): zebrafish embryos 72 hpf
Experimental: In this experiment, 2% DMSO was used to dissolve the target products, and the abnormal rate (MAR) and mortality rate (MOR) of zebrafish embryos (72 hpf) were used for statistics.
The zebrafish embryos were collected at 6 hpf and randomly divided into naive control (embryos maintained in distilled water), vehicle control (embryos treated with 2% DMSO), and drug groups. Stock solutions of all drugs were prepared in 2% DMSO as a solubilizing agent and diluted to three concentrations (0.5 mg/mL, 1 mg/mL, and 2 mg/mL). Each group had 20 embryos per test concentration. […] Each compound was evaluated in three independent biological experiments.

[7] = test system: hepatocellular carcinoma bel-7404 (BEL-7404); test: MTT antiproliferative assay, BEL-7404; format: cell-based, human; details: read-out: Effect against cell viability (IC50), BEL-7404
Experimental: as §1, §2

[8] = test system: large cell lung cancer cells (NCI-H460); test: MTT antiproliferative assay, NCI-H460; format: cell-based, human; details: read-out: Effect against cell viability (IC50), NCI-H460
Experimental: as §1, §2

[9] = target: T1, DNA topoisomerase I (topo I) (Bos taurus, UniProt F1MN93); test: Topo I inhibitory activity (pBR322); format: biochemical; details: at 100 µM
T1 construct: purchased Takara Bio Inc. (Shiga, Japan)
T1 sequence (F1MN93 1-767): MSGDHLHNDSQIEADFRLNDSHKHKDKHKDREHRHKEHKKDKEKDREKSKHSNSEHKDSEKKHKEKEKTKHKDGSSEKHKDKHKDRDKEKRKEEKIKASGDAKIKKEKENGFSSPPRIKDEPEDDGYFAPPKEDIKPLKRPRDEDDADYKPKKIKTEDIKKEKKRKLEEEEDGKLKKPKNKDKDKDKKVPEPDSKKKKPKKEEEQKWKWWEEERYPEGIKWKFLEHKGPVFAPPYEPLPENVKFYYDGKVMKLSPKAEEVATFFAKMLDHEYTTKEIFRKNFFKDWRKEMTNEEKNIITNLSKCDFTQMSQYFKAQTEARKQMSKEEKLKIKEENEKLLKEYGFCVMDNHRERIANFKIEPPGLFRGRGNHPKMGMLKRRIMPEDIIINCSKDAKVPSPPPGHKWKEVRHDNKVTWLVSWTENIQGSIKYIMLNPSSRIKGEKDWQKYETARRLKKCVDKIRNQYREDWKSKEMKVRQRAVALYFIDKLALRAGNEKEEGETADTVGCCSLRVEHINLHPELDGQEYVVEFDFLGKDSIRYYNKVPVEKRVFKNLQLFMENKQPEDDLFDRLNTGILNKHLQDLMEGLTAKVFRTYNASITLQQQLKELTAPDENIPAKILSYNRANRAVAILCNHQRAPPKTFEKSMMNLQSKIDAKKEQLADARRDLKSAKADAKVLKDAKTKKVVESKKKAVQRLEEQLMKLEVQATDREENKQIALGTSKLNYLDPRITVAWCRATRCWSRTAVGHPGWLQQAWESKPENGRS

| Compound | IC50 ([1]; MTT) | IC50 [3] | IC50 [4] | IC50 [5] | IC50 [7] | IC50 [8] | IC50 ([1]; Homo sapiens, MGC-803, MTT) | melting point | IC50 ([3]; Homo sapiens) | IC50 ([4]; Homo sapiens, Fibroblast) | IC50 ([5]; Homo sapiens) | IC50 ([7]; Homo sapiens) | IC50 ([8]; Homo sapiens) | other results |
| --- | --- | --- | --- | --- | --- | --- | --- | --- | --- | --- | --- | --- | --- | --- |
| COc1ccc2[nH]c3ccccc3c(=NC(=S)NNC(=O)c3ccncc3)c2c1 [4a, 1-2′-methoxyl acridinyl-3-4′-pyridinamide thiourea] | 10.9 ± 1.82 µM | > 100 µM | 75.8 ± 3.52 µM | 22 ± 1.71 µM | 26.9 ± 2.58 µM | 36.4 ± 3.12 µM | – | – | – | – | – | – | – | area of blood vessels ([2]; zebrafish embryos): could reduce the area of blood vessels; MAR (malformation rate) ([6]; 1 mg/mL): 85% ^c; MOR (mortality rate) ([6]; 1 mg/mL): 15% ^c; MAR (malformation rate) ([6]; 1.5 mg/mL): 60% ^c; MOR (mortality rate) ([6]; 1.5 mg/mL): 40% ^c; MAR (malformation rate) ([6]; 2 mg/mL): 55% ^c; MOR (mortality rate) ([6]; 2 mg/mL): 45% ^c; total mortality and malformation rate ([6]; zebrafish embryos, 2.0 mg.L^−1): 100% |
| COc1ccc2[nH]c3ccccc3c(=NC(=S)NNC(=O)c3ccc(Cl)cc3)c2c1 [4e] | 25.6 ± 1.97 µM | 10.3 ± 1.07 µM | 66.8 ± 4.52 µM | 10.2 ± 1.12 µM | 25.9 ± 2.17 µM | 73.2 ± 3.67 µM | – | – | – | – | – | – | – | topo I inhibitory activity [9]: potent |
| COc1ccc(-c2n[nH]c(=S)n2-c2c3ccccc3nc3ccc(OC)cc23)cc1 [5c, 4-(2-methoxyacridin-9-yl)-5-(4-methoxyphenyl)-2,4-dihydro-3H-1,2,4-triazole-3-thione] | – | – | – | – | – | – | 15.1 ± 0.98 µM | 262 to 267 °C | 29.3 ± 1.91 µM | 75.5 ± 2.92 µM | > 100 µM | 28.7 ± 2.24 µM | 36.5 ± 3.92 µM | topo I inhibitory activity [9]: potent |
| COc1ccc(-n2c(-c3c4ccccc4nc4ccc(C)cc34)n[nH]c2=S)cc1 [5h, 4-(4-methoxyphenyl)-4-(2-methylacridin-9-yl)-2,4-dihydro-3H-1,2,4-triazole-3-thione] | 10.9 ± 0.97 µM | 11.2 ± 1.16 µM | 68.1 ± 2.64 µM | 37.7 ± 2.47 µM | 40.3 ± 2.06 µM | 26.3 ± 2.51 µM | – | – | – | – | – | – | – | reduction in the vessel length (SIVs) compared to the mean vessel length for the controls ([2]; 72 hpf zebrafish embryos): ~50%; area of the meshed pattern vessel and number of vascular branches in the network ([2]; zebrafish embryos, compared with blank control group): decreased; mortality rate of zebrafish embryos [6]: ~0%; malformation rate of zebrafish embryos ([6]; 2.0 mg.L^−1): less than 15%; MAR (malformation rate) ([6]; 1 mg/mL): 5% ^a; MOR (mortality rate) ([6]; 1 mg/mL): 0%; MAR (malformation rate) ([6]; 1.5 mg/mL): 10% ^a; MOR (mortality rate) ([6]; 1.5 mg/mL): 0%; MAR (malformation rate) ([6]; 2 mg/mL): 15% ^a; MOR (mortality rate) ([6]; 2 mg/mL): 0% |
| COC1=CC2C(=Nc3nnc(-c4ccc(OC)cc4)s3)c3ccccc3NC2C=C1 (stereo not shown) [6c, 7-methoxy-N-(5-(4-methoxyphenyl)-1,3,4-thiadiazol-2-yl)-10,10a-dihydroacridin-9(8aH)-imine] | – | – | – | – | – | – | 12.1 ± 1.22 µM | 230 to 232 °C | 24.3 ± 2.34 µM | 65.2 ± 3.92 µM | > 100 µM | 25.1 ± 2.15 µM | 30.2 ± 2.45 µM | – |
| COC1=CC2C(=Nc3nnc(-c4ccc([N+](=O)[O-])cc4)s3)c3ccccc3NC2C=C1 (stereo not shown) [6d, 7-methoxy-N-(5-(4-nitrophenyl)-1,3,4-thiadiazol-2-yl)-10,10a-dihydroacridin-9(8aH)-imine] | – | – | – | – | – | – | 26.7 ± 3.35 µM | 258 to 260 °C | > 100 µM | > 100 µM | > 100 µM | > 100 µM | > 100 µM | – |
| CC1=CC2C(=Nc3nnc(-c4ccncc4)s3)c3ccccc3NC2C=C1 (stereo not shown) [6f, 7-methyl-N-(5-(pyridin-4-yl)-1,3,4-thiadiazol-2-yl)-10,10a-dihydroacridin-9(8aH)-imine] | – | – | – | – | – | – | 12.3 ± 1.96 µM | 276 to 278 °C | 13.9 ± 1.37 µM | 45.4 ± 2.18 µM | 37.2 ± 2.12 µM | 40.3 ± 2.19 µM | 55.7 ± 3.28 µM | – |
| CC1=CC2C(=Nc3nnc(-c4ccccc4)s3)c3ccccc3NC2C=C1 (stereo not shown) [6g, 7-methyl-N-(5-phenyl-1,3,4-thiadiazol-2-yl)-10,10a-dihydroacridin-9(8aH)-imine] | 9.95 ± 1.03 µM | – | – | – | – | – | 9.01 ± 1.32 µM | 294 to 296 °C | 19.3 ± 1.05 µM | 76.5 ± 2.79 µM | > 100 µM | 31.2 ± 3.27 µM | 25.9 ± 1.83 µM | area of blood vessels ([2]; zebrafish embryos): could reduce the area of blood vessels |
| CC1=CC2C(=Nc3nnc(-c4ccc(Cl)cc4)s3)c3ccccc3NC2C=C1 (stereo not shown) [6j, 7-methyl-N-(5-(4-chlorophenyl)-1,3,4-thiadiazol-2-yl)-10,10a-dihydroacridin-9(8aH)-imine] | – | – | – | – | – | – | 13 ± 1.89 µM | 258 to 260 °C | 15.5 ± 1.98 µM | 56.2 ± 3.16 µM | 51.2 ± 3.09 µM | 48.5 ± 3.06 µM | 13.9 ± 1.83 µM | – |
